Patent US6395906B1, “Intermediates to pesticidal 1-arylpyrazoles” (Rhone-Poulenc Inc., priority 1995, dated 2002)

How the values were obtained:
Format in all cases: in vivo
[1] = system: American cockroach (Periplaneta americana); test: American cockroach (ACR) treated food pellet test; settings: food pellets with 500 ppm formulation; nymphs, contact and feeding mortality 1 and 5 days after infestation
Description: (§1) For the tick, aphids, souther armyworm, tobacco budworm, house fly, Mexican bean beetle, American cockroach, cat flea, souther corn rootworm, western corn rootworm, black cutworm, and southern root-knot nematode, a solution or suspension was prepared by adding the test compound to a solution of dimethylformamide, acetone, emulsifiers which are alkylaryl polyether alcohols organic sulfonates, and water. The result was a 100 or 500 ppm concentration of the test compound.
American cockroach (ACR): Cat food or dog food pellets were added to jars containing 1-2 mls of the 500 ppm test formulation. As an untreated control, an aliquot of a water-acetone-DMF-emulsifier solution containing no test compound was applied in a similar manner. After 48 hours, roach nymphs were added to the jar. Contact and feeding mortally was assessed 1 and 5 days after infestation.

[2] = system: cotton aphid (Aphis gossypii); test: Cotton aphid systemic test (CA-Sys); settings: soil drench 10.0 ppm, aphid control rated three and six days after infestation
Excerpt: For cotton aphid systemic tests and black cutwork—systemic tests, the water-acetone-DMF-emulsifier solution was adjusted for a treatment rate of 10.0 ppm soil concentration.
Cotton aphid—systemic test (CA-Sys): Cotton seeds were placed on top of the soil surface in pots containing moist soil. The test compound solution was applied as a drench to the top of the soil and seeds for a treatment rate equivalent to 10.0 ppm soil concentration. As an untreated control, an aliquot of a water-acetone-DMF-emulsifier solution containing no test compound was applied in a similar manner. The soil surface and seeds were covered with moist soil. The pots were held in the greenhouse for the duration of the bioassay. When the cotyledons of the cotton were expanded (approximately 7 days after planting), the cotton was infested with approximately 25 cotton aphids (mixed population). The plant were rated for aphid control three and six days after infestation.

[3] = system: cotton aphid (Aphis gossypii); test: Cotton aphid (CA) foliar spray test; settings: cotton plants wet to runoff, 100 or 500 ppm; dead aphids counted after three days
Description: as §1
Buckthorn aphid (BA) or cotton aphid (CA): Adult and nymphal stages of buckthorn or cotton aphid were reared on potted dwarf nasturtium or cotton plants, respectively. Plants infested with 100-150 aphids were wet to runoff with the 100 or 500 ppm test compound formulation. As an untreated control, a water-acetone-DMF-emulsifier solution containing no test compound was also applied to runoff to infested plants. The treated plants were stored for one day for buckthorn aphid and three days for cotton aphid, after which the dead aphids were counted.

[4] = system: cat flea (Ctenocephalides felis); test: Cat flea (CF) treated filter paper contact test; settings: 500 ppm, adult fleas, contact mortality 1 day after infestation
Description: as §1
Cat flea (CF), dog tick (DT): Filter papers were treated with an aliquot of the 500 ppm test formulation. As an untreated control, an aliquot of a water-acetone-DMF-emulsifier solution containing no test compound was applied in a similar manner. When dry, 2 treated filters were placed in a vial for the flea and another 2 filters in a vial for the tick. Five adult fleas were added to one vial and 5 adult ticks to the second vial. Contact mortality was assessed 1 day after infestation for the flea and 14 days after infestation for the tick.

[5] = system: black cutworm (Agrotis ipsilon); test: Black cutworm (BCW) soil test; settings: soil concentration 2.5, 5, 6.75 or 10 ppm; mortality eight days after infestation
Description: as §1
(§2) For southern corn rootworm and black cutworm tests, the water-acetone-DMF-emulsifier solution was adjusted for a treatment rate of 2.5, 5, 6.75 or 10 ppm.
(§3) Southern corn rootworm (SCRW), Black cutworm (BCW): Corn seeds were placed in a glass jar and covered with dry sandy loam soil. The 500 ppm test formulation was applied for a soil concentration of 2.5, 5, 6.75 or 10 ppm. As an untreated control, an aliquot of a water-acetone-DMF-emulsifier solution containing no test compound was applied in a similar manner. After incubating covered for 24 hours, the soil was mixed and inoculated with approximately 25 southern corn rootworm eggs. Following an additional 48 hours, two late second to early third instar black cutworms were placed in the jar with a portion of insect diet. Eight days after infestation, mortality was assessed visually for cutworm and by Berlese funnel extraction for rootworm.

[6] = system: tobacco budworm (Heliothis virescens); test: Tobacco budworm (TBW) treated cotton leaf test; settings: cotton leaves, 100 ppm; second instar larvae, five days
Description: as §1
Tobacco budworm (TBW): Cotton leaves were wet to runoff with the 100 ppm test compound formulation. As an untreated control, a water-acetone-DMF-emulsifier solution containing no test compound was also applied wet to runoff to cotton leaves. Ten randomly selected second instar tobacco budworm larvae were introduced into plastic containers in which moist dental wicks and the dry treated leaves had been placed. The cups were closed and held for five days. Larvae which were unable to move the length of the body, even upon stimulation by prodding, were considered dead.

[7] = system: house fly (Musca domestica); test: House fly (HF) bait test; settings: sucrose bait, 100 or 250 ppm; adult flies, mortality after 24 hours
Description: as §1
For house fly tests, the water-acetone-DMF-emulsifier solution was adjusted with a 20% by weight aqueous solution of sucrose to provide a final 100 or 250 ppm concentration of the test compound.
House fly (HF): Four to six day old adult house flies were used. The files were immobilized by anesthetizing with carbon dioxide. A bait cup was prepared which contained the 100 or 250 ppm test compound formulation/sucrose solution and one or two absorbent cotton pad(s). As an untreated control, a water-acetone-DMF-emulsifier-sucrose solution containing no test compound was applied in a similar manner. The bait cup was introduced inside the cage prior to admitting 12-25 anesthetized flies. Mortality was assessed after 24 hours.

[8] = system: southern corn rootworm (Diabrotica undecimpunctata howardi); test: Southern corn rootworm (SCRW) soil test; settings: soil concentration 2.5, 5, 6.75 or 10 ppm; mortality eight days after infestation
Description: as §1, §2, §3

[9] = system: western corn rootworm (Diabrotica virgifera virgifera); test: Western corn rootworm (WCRW) soil test; settings: soil concentration 0.15 or 0.5 ppm; neonate larvae, mortality six days after infestation
Description: as §1
For the western corn rootworm test, the water-acetone-DMF-emulsifier solution was adjusted for a treatment rate of 0.15 or 0.5 ppm.
Western corn rootworm (WCRW): The 500 ppm test formulation was applied to dry sandy loam soil contained in a glass jar for a soil concentration of 0.15 or 0.5 ppm. As an untreated control, an aliquot of a water-acetone-DMF-emulsifier solution containing no test compound was applied in a similar manner. After incubating covered for 24 hours, the soil was mixed and four germinated corn seedlings were added to the jar. Ten neonate western corn rootworm larvae were placed in the jar. Six days after infestation, mortality was assessed by Berlese funnel extraction.

SMILES | ACR [1] | CA-Sys [2] | CA [3] | CF [4] | BCW [5] | TBW [6] | HF [7] | SCRW [8] | WCRW [9]
CCOC(OCC)c1c([S+]([O-])C(F)(F)F)c(C#N)nn1-c1c(Cl)cc(C(F)(F)F)cc1Cl (stereo not shown) [Compound 20, 3-Cyano-1-(2,6-dichloro-4-trifluoromethylphenyl)-5-diethoxymethyl-4-trifluoromethylsulfinylpyrazole] | + (active against 1 or more insects described above up to 100% mortality. This activity is indicated by a “+”) | + (active against 1 or more insects described above up to 100% mortality. This activity is indicated by a “+”) | + (active against 1 or more insects described above up to 100% mortality. This activity is indicated by a “+”) | + (active against 1 or more insects described above up to 100% mortality. This activity is indicated by a “+”) |  |  |  |  | 
N#Cc1nn(-c2c(Cl)cc(C(F)(F)F)cc2Cl)c(C=NN)c1SC(F)(F)F [Compound 3, 5-{(N-amino)iminomethylidenyl}-3-cyano-1-(2,6-dichloro-4-trifluoromethylphenyl)-4-trifluoromethylthiopyrazole] |  |  |  |  | + (active against 1 or more insects described above up to 100% mortality. This activity is indicated by a “+”) | + (active against 1 or more insects described above up to 100% mortality. This activity is indicated by a “+”) | + (active against 1 or more insects described above up to 100% mortality. This activity is indicated by a “+”) | + (active against 1 or more insects described above up to 100% mortality. This activity is indicated by a “+”) | 
CCOC(OCC)c1c(S(=O)(=O)C(F)(F)F)c(C#N)nn1-c1c(Cl)cc(C(F)(F)F)cc1Cl [Compound 19, 3-Cyano-1-(2,6-dichloro-4-trifluoromethylphenyl)-5-diethoxymethyl-4-trifluoromethylsulfonylpyrazole] | + (active against 1 or more insects described above up to 100% mortality. This activity is indicated by a “+”) |  |  | + (active against 1 or more insects described above up to 100% mortality. This activity is indicated by a “+”) |  | + (active against 1 or more insects described above up to 100% mortality. This activity is indicated by a “+”) |  |  | 
CON=Cc1c(SC(F)(F)F)c(C#N)nn1-c1c(Cl)cc(C(F)(F)F)cc1Cl [Compound 5, 3-Cyano-1-(2,6-dichloro-4-trifluoromethylphenyl)-5-{(N-methoxy)iminomethylidenyl}-4-trifluoromethylthiopyrazole] |  | + (active against 1 or more insects described above up to 100% mortality. This activity is indicated by a “+”) | + (active against 1 or more insects described above up to 100% mortality. This activity is indicated by a “+”) |  |  |  | + (active against 1 or more insects described above up to 100% mortality. This activity is indicated by a “+”) | + (active against 1 or more insects described above up to 100% mortality. This activity is indicated by a “+”) | + (active against 1 or more insects described above up to 100% mortality. This activity is indicated by a “+”)
